Experimental data taken from PubChem BioAssay AID1259407 (Chemical Carcinogenesis Research Information System (CCRIS), 2018).
Activity calls are given as the source filed them. The rule behind the calls is not given here.

Tested on: CCRIS mutagenicity, Ames/micronucleus/aberration tests
Assay: CCRIS mutagenicity studies

Oc1cccc2cccnc12
mutagenic call (Test System: AMES SALMONELLA TYPHIMURIUM, Strain/Indicator: TA100, Metabolic Activation: RAT, LIVER, S-9, AROCLOR 1254 (30%), Method: PREINCUBATION): active; positive
mutagenic call (Test System: AMES SALMONELLA TYPHIMURIUM, Strain/Indicator: TA100, Metabolic Activation: RAT, LIVER, S-9, AROCLOR 1254, Method: STANDARD PLATE): active; positive
mutagenic call (Test System: AMES SALMONELLA TYPHIMURIUM, Strain/Indicator: TA100, Metabolic Activation: RAT, LIVER, S-9, KC500 OR PHENOBARBITAL, Method: LIQUID SUSPENSION): active; positive
mutagenic call (Test System: AMES SALMONELLA TYPHIMURIUM, Strain/Indicator: TA100, Metabolic Activation: RAT, LIVER, S-9, Method: PREINCUBATION): active; positive
mutagenic call (Test System: AMES SALMONELLA TYPHIMURIUM, Strain/Indicator: TA100, Metabolic Activation: S-9, Method: PREINCUBATION): active; positive
mutagenic call (Test System: AMES SALMONELLA TYPHIMURIUM, Strain/Indicator: TA1535, Metabolic Activation: HAMSTER, LIVER, S-9, AROCLOR 1254 (10%), Method: PREINCUBATION): inactive; negative
mutagenic call (Test System: AMES SALMONELLA TYPHIMURIUM, Strain/Indicator: TA1535, Metabolic Activation: NONE, Method: PREINCUBATION): inactive; negative
mutagenic call (Test System: AMES SALMONELLA TYPHIMURIUM, Strain/Indicator: TA1535, Metabolic Activation: RAT, LIVER, S-9, AROCLOR 1254 (10%), Method: PREINCUBATION): inactive; negative
mutagenic call (Test System: AMES SALMONELLA TYPHIMURIUM, Strain/Indicator: TA1535, Metabolic Activation: RAT, LIVER, S-9, AROCLOR 1254, Method: STANDARD PLATE): active; positive
mutagenic call (Test System: AMES SALMONELLA TYPHIMURIUM, Strain/Indicator: TA1537, Metabolic Activation: NONE, Method: FLUCTUATION (MICROTITER)): inactive; negative
mutagenic call (Test System: AMES SALMONELLA TYPHIMURIUM, Strain/Indicator: TA1537, Metabolic Activation: RAT LIVER S-9, AROCLOR 1254, Method: FLUCTUATION (MICROTITER)): active; positive
mutagenic call (Test System: AMES SALMONELLA TYPHIMURIUM, Strain/Indicator: TA1537, Metabolic Activation: RAT, LIVER, S-9, AROCLOR 1254, Method: STANDARD PLATE): active; positive
mutagenic call (Test System: AMES SALMONELLA TYPHIMURIUM, Strain/Indicator: TA7001, Metabolic Activation: NONE, Method: FLUCTUATION (MICROTITER)): inactive; negative
mutagenic call (Test System: AMES SALMONELLA TYPHIMURIUM, Strain/Indicator: TA7001, Metabolic Activation: RAT LIVER S-9, AROCLOR 1254, Method: FLUCTUATION (MICROTITER)): inactive; negative
mutagenic call (Test System: AMES SALMONELLA TYPHIMURIUM, Strain/Indicator: TA7002, Metabolic Activation: NONE, Method: FLUCTUATION (MICROTITER)): inactive; negative
mutagenic call (Test System: AMES SALMONELLA TYPHIMURIUM, Strain/Indicator: TA7002, Metabolic Activation: RAT LIVER S-9, AROCLOR 1254, Method: FLUCTUATION (MICROTITER)): active; positive
mutagenic call (Test System: AMES SALMONELLA TYPHIMURIUM, Strain/Indicator: TA7003, Metabolic Activation: NONE, Method: FLUCTUATION (MICROTITER)): inactive; negative
mutagenic call (Test System: AMES SALMONELLA TYPHIMURIUM, Strain/Indicator: TA7003, Metabolic Activation: RAT LIVER S-9, AROCLOR 1254, Method: FLUCTUATION (MICROTITER)): inactive; negative
mutagenic call (Test System: AMES SALMONELLA TYPHIMURIUM, Strain/Indicator: TA7004, Metabolic Activation: NONE, Method: FLUCTUATION (MICROTITER)): inactive; negative
mutagenic call (Test System: AMES SALMONELLA TYPHIMURIUM, Strain/Indicator: TA7004, Metabolic Activation: RAT LIVER S-9, AROCLOR 1254, Method: FLUCTUATION (MICROTITER)): inactive; negative
mutagenic call (Test System: AMES SALMONELLA TYPHIMURIUM, Strain/Indicator: TA7005, Metabolic Activation: NONE, Method: FLUCTUATION (MICROTITER)): inactive; negative
mutagenic call (Test System: AMES SALMONELLA TYPHIMURIUM, Strain/Indicator: TA7005, Metabolic Activation: RAT LIVER S-9, AROCLOR 1254, Method: FLUCTUATION (MICROTITER)): active; positive
mutagenic call (Test System: AMES SALMONELLA TYPHIMURIUM, Strain/Indicator: TA7006, Metabolic Activation: NONE, Method: FLUCTUATION (MICROTITER)): inactive; negative
mutagenic call (Test System: AMES SALMONELLA TYPHIMURIUM, Strain/Indicator: TA7006, Metabolic Activation: RAT LIVER S-9, AROCLOR 1254, Method: FLUCTUATION (MICROTITER)): inactive; negative
mutagenic call (Test System: UDS RODENT HEPATOCYTES, Strain/Indicator: THY INCORP (NON-S-PHASE), Metabolic Activation: IN VIVO, Method: AUTORADIOGRAPHY): inactive; negative
